Source: patent US10130630B2, “BTK inhibitors” (MERCK SHARP & DOHME CORP., priority 2014, dated 2018)
Like-named read-outs stand apart in the source and are kept apart here.

Experiments:
[1] = biological target: T1, BTK enzyme (full-length BTK, hBTK) (Homo sapiens, UniProt Q06187); assay: Btk enzyme activity assay (LANCE TR-FRET); format: biochemical; details: 50 pM hBTK, 25 μM ATP, 60 minute compound and enzyme incubation, read-out: BTK binding IC50
T1 construct: recombinant protein from baculovirus-transfected Sf9 cells: full-length BTK, 6HIS-tag cleaved; 6HIS (cleaved yes); made in house; host or cells: baculovirus-transfected Sf9 cells
T1 sequence (Q06187 whole entry): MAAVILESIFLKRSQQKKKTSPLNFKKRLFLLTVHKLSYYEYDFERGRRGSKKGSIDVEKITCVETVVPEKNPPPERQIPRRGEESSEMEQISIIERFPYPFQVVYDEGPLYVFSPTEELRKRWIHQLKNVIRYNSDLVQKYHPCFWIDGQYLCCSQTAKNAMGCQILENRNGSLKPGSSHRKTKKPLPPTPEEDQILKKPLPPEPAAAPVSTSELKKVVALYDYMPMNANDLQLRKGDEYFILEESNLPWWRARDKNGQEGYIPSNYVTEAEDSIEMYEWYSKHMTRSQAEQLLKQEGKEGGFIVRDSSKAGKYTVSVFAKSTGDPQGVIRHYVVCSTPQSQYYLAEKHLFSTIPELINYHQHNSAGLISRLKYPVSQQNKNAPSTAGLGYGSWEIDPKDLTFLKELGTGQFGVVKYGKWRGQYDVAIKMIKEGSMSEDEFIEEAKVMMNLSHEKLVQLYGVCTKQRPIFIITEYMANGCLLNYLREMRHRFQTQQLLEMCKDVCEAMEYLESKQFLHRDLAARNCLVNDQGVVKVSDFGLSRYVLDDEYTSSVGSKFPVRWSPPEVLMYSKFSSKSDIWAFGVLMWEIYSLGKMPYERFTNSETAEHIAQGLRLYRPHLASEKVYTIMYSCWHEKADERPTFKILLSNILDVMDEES
Experimental: BTK enzymatic activity was determined with the LANCE (Lanthanide Chelate Excite) TR-FRET (Time-resolved fluorescence resonance energy transfer) assay. […] To each well of a black non-binding surface Corning 384-well microplate (Corning Catalog #3820), 5 nL of compound (2000 fold dilution in final assay volume of 10 μL) was dispensed, followed by the addition of 7.5 μL of 1× kinase buffer (50 mM Hepes 7.5, 10 mM MgCl2, 0.01% Brij-35, 1 mM EGTA, 0.05% BSA & 1 mM DTT) containing 5.09 pg/μL (66.67 pM) of BTK enzyme (recombinant protein from baculovirus-transfected Sf9 cells: full-length BTK, 6HIS-tag cleaved). Following a 60 minute compound and enzyme incubation, each reaction was initiated by the addition of 2.5 μL 1× kinase buffer containing 8 μM biotinylated “A5” peptide (Biotin-[…]-NH2) (SEQ.ID.NO.: 1), and 100 μM ATP. The final reaction in each well of 10 μL consists of 50 pM hBTK, 2 μM biotin-A5-peptide, and 25 μM ATP. Phosphorylation reactions were allowed to proceed for 120 minutes. Reactions were immediately quenched by the addition of 20 uL of 1× quench buffer (15 mM EDTA, 25 mM Hepes 7.3, and 0.1% Triton X-100) containing detection reagents (0.626 nM of LANCE-Eu-W1024-anti-phosphoTyrosine antibody, PerkinElmer and 86.8 nM of Streptavidin-conjugated Dylight 650, Dyomics/ThermoFisher Scientific). After 60 minutes incubation with detection reagents, reaction plates were read on a PerkinElmer EnVision plate reader using standard TR-FRET protocol. Briefly, excitation of donor molecules (Eu-chelate:anti-phospho-antibody) with a laser light source at 337 nm produces energy that can be transferred to Dylight-650 acceptor molecules if this donor:acceptor pair is within close proximity. Fluorescence intensity at both 665 nm (acceptor) and 615 nm (donor) are measured and a TR-FRET ratio calculated for each well (acceptor intensity/donor intensity). IC50 values were determined by 4 parameter robust fit of TR-FRET ratio values vs. (Log10) compound concentrations.
The following Table 2 provides specific IC50 values for all the examples. The IC50 values set forth below were determined according to Assay method described above.

[2] = test system: adenosine uptake into HeLa cells; assay: [3H]Adenosine uptake assay in HeLa cells; format: cell-based; details: 60 minutes uptake, read-out: ADU inhibition IC50 (adenosine uptake inhibition potency)
Experimental: Compounds were also screened in an adenosine uptake functional cellular assay using the protocol described below.
Adenosine uptake activity was determined by monitoring the accumulation of tritiated adenosine into HeLa cells (ATCC catalog # CCL-2) using a PMT-based radiometric detection instrument. In this assay, the potency (IC50) of each compound was determined from a ten point (1:3 serial dilution; final compound concentration range in assay from 10 μM to 0.032 nM) titration curve using the following outlined procedure. To each well of a 96-well CytoStar-T scintillating microplate (Perkin Elmer Catalog # RPNQ0163), 25 000 HeLa cells in 100 μL of growth medium comprising: Minimum Essential Media (Life Technologies Catalog # 11095-080)+10% (v/v) foetal bovine serum (FBS; Sigma Aldrich Catalog # F2442) was added. These cells were incubated overnight at 37° C. in a humidified atmosphere with 5% (v/v) CO2. After this time the growth medium was removed and replaced with 40 μL assay medium comprising: Hanks balanced salts solution (HBSS; Thermo Fisher Catalog # SH30268.01)+5% (v/v) FBS. Compound stock solutions in DMSO were diluted in assay medium to 2.5× final compound concentration maintaining a constant DMSO concentration of 0.25% (v/v). 40 μL of compound in assay medium was dispensed into individual wells of the Cytostar-T plates and the plates were incubated for 30 minutes under ambient laboratory conditions. Following this incubation, 20 μL of 500 nM [^3H]adenosine (American Radiolabeled Chemicals Inc. Catalog # ART0287) in assay medium was added and incubated for a further 60 minutes under ambient laboratory conditions. The amount of radiolabel accumulation was then determined using a Perkin Elmer Topcount NXT microplate reader. In brief, HeLa cells adhere to the bottom of the Cytostar-T plate, uptake of [^3H]adenosine into these cells brings the radiolabel into sufficient proximity to excite the scintillant in the base of the plates. These events are captured by single PMT, time-resolved coincidence counting. IC50 values were determined by 4 parameter robust fit of counts per second values vs. (Log10) compound concentrations.

SMILES | IC50 [1] [nM] | IC50 [2] [nM] | IC50 ([2]; Homo sapiens, HeLa) [nM]
CCOc1cc(C(=O)Nc2cc(C(F)(F)F)ccn2)ccc1-c1nc(C2CCC3N(C2)C(=O)CNC32CC2)n2ccnc(N)c12 (stereo not shown) [Compound 42, 4-[8-amino-3-(4′-oxohexahydro-2′H,6′H-spiro[cyclopropane-1,1′-pyrido[1,2-a]pyrazin]-7′-yl)imidazo[1,5-a]pyrazin-1-yl]-3-ethoxy-N-[4-(trifluoromethyl)pyridin-2-yl]benzamide] | 0.231 | 2220 | 
Nc1nccn2c([C@@H]3CC[C@H]4[C@@H](O)C5(CC5)C(=O)N4C3)nc(-c3ccc(C(=O)Nc4cc(C(F)(F)F)ccn4)cc3F)c12 [Compound 12, 4-(8-amino-3-((1′S,6′R,8a′S)-1′-hydroxy-3′-oxohexahydro-1′H-spiro[cyclopropane-1,2′-indolizin]-6′-yl)imidazo[1,5-a]pyrazin-1-yl)-3-fluoro-N-(4-(trifluoromethyl)pyridin-2-yl)benzamide] | 0.385 |  | 963
COc1cc(C(=O)Nc2cc(C(F)(F)F)ccn2)ccc1-c1nc([C@H]2CC[C@@H]3CC4(CC4)C(=O)N3C2)n2ccnc(N)c12 [Compound 47, 4-{8-amino-3-[(6′S,8a′R)-3′-oxohexahydrospiro[cyclopropane-1,2′-indolizin]-6′-yl]imidazo[1,5-a]pyrazin-1-yl}-3-methoxy-N-[4-(trifluoromethyl)pyridin-2-yl]benzamide] | 0.528 |  | 524
CCOc1cc(C(=O)Nc2cc(C(F)(F)F)ccn2)ccc1-c1nc([C@H]2CC[C@H]3N(C2)C(=O)C2(CC2)C3(F)F)n2ccnc(N)c12 [Compound 2, 4-(8-amino-3-((6′S,8a′R)-1′,1′-difluoro-3′-oxohexahydro-1′H-spiro[cyclopropane-1,2′-indolizin]-6′-yl)imidazo[1,5-a]pyrazin-1-yl)-3-ethoxy-N-(4-(trifluoromethyl)pyridin-2-yl)benzamide] | 11.8 |  | 895
CCOc1cc(C(=O)Nc2cc(C(F)(F)F)ccn2)ccc1-c1nc([C@@H]2CC[C@H]3CNC4(CCC4)C(=O)N3C2)n2ccnc(N)c12 [Compound 17, 4-{8-amino-3-[(7′R,9a′S)-4′-oxohexahydro-2′H-spiro[cyclobutane-1,3′-pyrido[1,2-a]pyrazin]-7′-yl]imidazo[1,5-a]pyrazin-1-yl}-3-ethoxy-N-[4-(trifluoromethyl)pyridin-2-yl]benzamide] | 0.501 |  | 1700
Nc1nccn2c([C@@H]3CC[C@H]4C(=O)C5(CC5)C(=O)N4C3)nc(-c3ccc(C(=O)Nc4cc(C(F)(F)F)ccn4)cc3)c12 [Compound 6, 4-{8-amino-3-[(6′R,8a′S)-1′,3′-dioxohexahydrospiro[cyclopropane-1,2′-indolizin]-6′-yl]imidazo[1,5-a]pyrazin-1-yl}-N-[4-(trifluoromethyl)pyridin-2-yl]benzamide] | 0.857 |  | 152
CCOc1cc(C(=O)Nc2cc(C(F)(F)F)ccn2)ccc1-c1nc([C@H]2CC[C@H]3N(C2)C(=O)CC32CC2)n2ccnc(N)c12 [Compound 19, 4-{8-amino-3-[(6′S,8a′R)-3′-oxohexahydro-5′H-spiro[cyclopropane-1,1′-indolizin]-6′-yl]imidazo[1,5-a]pyrazin-1-yl}-3-ethoxy-N-[4-(trifluoromethyl)pyridin-2-yl]benzamide] | 3.81 |  | 613
CCOc1cc(C(=O)Nc2cc(C(F)(F)F)ccn2)ccc1-c1nc([C@@H]2CC[C@H]3C(=O)C4(CC4)C(=O)N3C2)n2ccnc(N)c12 [Compound 5, 4-{8-amino-3-[(6′R,8a′S)-1′,3′-dioxohexahydrospiro[cyclopropane-1,2′-indolizin]-6′-yl]imidazo[1,5-a]pyrazin-1-yl}-3-ethoxy-N-[4-(trifluoromethyl)pyridin-2-yl]benzamide] | 1.47 |  | 912
CCOc1cc(C(=O)Nc2cc(C(F)(F)F)ccn2)ccc1-c1nc([C@@H]2CC[C@H]3[C@@H](OC)C4(CC4)C(=O)N3C2)n2ccnc(N)c12 [Compound 14, 4-(8-amino-3-((1′S,6′R,8a′S)-1′-methoxy-3′-oxohexahydro-1′H-spiro[cyclopropane-1,2′-indolizin]-6′-yl)imidazo[1,5-a]pyrazin-1-yl)-3-ethoxy-N-(4-(trifluoromethyl)pyridin-2-yl)benzamide] | 1.28 |  | 828
CCOc1cc(C(=O)Nc2cc(C(F)(F)F)ccn2)ccc1-c1nc([C@H]2CN3C(=O)[C@@H]4CCCN4C[C@@H]3CO2)n2ccnc(N)c12 [Compound 36, 4-{8-amino-3-[(3R,6aS,11aR)-6-oxooctahydro-1H,6H-pyrrolo[1′,2′:4,5]pyrazino[2,1-c][1,4]oxazin-3-yl]imidazo[1,5-a]pyrazin-1-yl}-3-ethoxy-N-[4-(trifluoromethyl)pyridin-2-yl]benzamide] | 1 |  | 1250
CCOc1cc(C(=O)Nc2cc(C(F)(F)F)ccn2)ccc1-c1nc([C@@H]2CC[C@@H]3N(C2)C(=O)C2(CC2)C3(F)F)n2ccnc(N)c12 [Compound 3, 4-(8-amino-3-((6′R,8a′S)-1′,1′-difluoro-3′-oxohexahydro-1′H-spiro[cyclopropane-1,2′-indolizin]-6′-yl)imidazo[1,5-a]pyrazin-1-yl)-3-ethoxy-N-(4-(trifluoromethyl)pyridin-2-yl)benzamide] | 1 | 1330 | 
Nc1nccn2c([C@@H]3CC[C@H]4C(=O)C5(CC5)C(=O)N4C3)nc(-c3ccc(C(=O)Nc4cc(C5CC5)ccn4)cc3)c12 [Compound 9, 4-{8-amino-3-[(6′R,8a′S)-1′,3′-dioxohexahydrospiro[cyclopropane-1,2′-indolizin]-6′-yl]imidazo[1,5-a]pyrazin-1-yl}-N-(4-cyclopropylpyridin-2-yl)benzamide] | 1.62 |  | 183
CCOc1cc(C(=O)Nc2cc(C3CC3)ccn2)cc(F)c1-c1nc([C@@H]2CC[C@@H]3N(C2)C(=O)CC32CC2)n2ccnc(N)c12 [Compound 21, 4-{8-amino-3-[(6′R,8a′S)-3′-oxohexahydro-5′H-spiro[cyclopropane-1,1′-indolizin]-6′-yl]imidazo[1,5-a]pyrazin-1-yl}-N-(4-cyclopropylpyridin-2-yl)-3-ethoxy-5-fluorobenzamide] | 0.16 |  | 1060
CCOc1cc(C(=O)Nc2cc(C(F)(F)F)n(C)n2)ccc1-c1nc([C@@H]2CC[C@@H]3N(C2)C(=O)C2(CC2)C3(F)F)n2ccnc(N)c12 [Compound 32, 4-{8-amino-3-[(6′R,8a′S)-1′,1′-difluoro-3′-oxohexahydrospiro[cyclopropane-1,2′-indolizin]-6′-yl]imidazo[1,5-a]pyrazin-1-yl}-3-ethoxy-N-[1-methyl-5-(trifluoromethyl)-1H-pyrazol-3-yl]benzamide] | 6.22 |  | 2950
